The results in this text go back to PubChem BioAssay AID2823 (Broad Institute, 2010).

The structures appear in SMILES notation. Active and inactive are the calls of the source. The rule behind the calls is not given here.

The experiment addresses RanGTP-importin-beta complex (human Ran / KPNB1). The experiment can be described thus: Ran–importin-beta interaction inhibitors, confirmation, biochemical, FRET, CFP/YFP, cell-free homogeneous (AID 2823). As to conditions: CFP-Ran/YFP-importin-beta FRET ratio.
As for `CCOC(=O)C1(CCc2ccccc2)CCN(Cc2ccccn2)CC1`, the IC50 is > 50 µM (inactive).
Regarding `COc1ccc(C(=O)/C=C(\C)NCc2ccc3c(c2)OCO3)cc1`, the IC50 is > 50 µM (inactive).
`Cc1nc2nc(CCNS(=O)(=O)c3ccc(Cl)cc3)cn2nc1C`: the IC50 is 41.2 µM.
The result for `COc1ccc(/C=N/NC(=O)c2sc3nc(C)cc(C)c3c2N)cc1` reads 21 µM.
As for `Cc1ccc2cc(C#N)c(N3CCCN(C(=S)NCCCN(C)C)CC3)nc2c1`, the IC50 is 22.6 µM.
As to `Cc1cccc(CN2CCc3c(OCC(=O)N4CCCc5ccccc54)cccc3C2=O)c1`, the IC50 was > 50 µM (inactive).
`COC(=O)c1ccc2c(C(C)(C)O)c(C(C)(C)O)[nH]c2c1`: the IC50 is > 50 µM (inactive).
In the case of `Clc1ccc(-c2ncc3ccccn23)cc1`, the IC50 was > 50 µM (inactive).
Turning to `Cc1c(C#N)c(NC(=O)CCl)n(Cc2ccccc2)c1C`, the IC50 was > 50 µM (inactive).
With `O=C(Nc1ccc(OC(F)(F)F)cc1)c1ccc2nc[nH]c2c1`, the IC50 was > 50 µM (inactive).
For `CC(=O)N(c1ccc(Cl)cc1)c1c[nH]c2ccccc12` the value was > 50 µM (inactive); for `O=[N+]([O-])c1ccc(S(=O)(=O)Nc2nnc(C3CCCCC3)s2)cc1`, > 50 µM (inactive).
For the compound `CCOC(=O)CC(=O)CSc1nc2c(cc1C#N)CCC2`, the IC50 was 29.2 µM.
Regarding `Cc1cccc(C(=O)Nc2sc(C)c(-c3ccccc3)c2C#N)c1`, the IC50 is > 50 µM (inactive).
`N#CC1=C(N)SC(N)=C(C#N)C1c1cccc(Oc2ccccc2)c1`: the IC50 is > 50 µM (inactive).
`CCOC(=O)C1=C(N)Oc2ccc3ccccc3c2C1c1ccc(O)c(OC)c1` (configuration not stated): the IC50 is > 50 µM (inactive).
Take `Cn1c2ccccc2c(=O)c2ccc(F)cc21`: the IC50 is 12.6 µM.
The result for `CCN1CCc2nc(NC(=O)CC(c3ccccc3)c3ccccc3)sc2C1` reads 23.2 µM; that for `Oc1ccccc1/C=N/Nc1cc(N2CCCC2)nc(N2CCCC2)n1`, > 50 µM (inactive); that for `CCN(CC(=O)Nc1cccc(S(=O)(=O)N2CCCCC2)c1)Cc1ccccc1`, > 50 µM (inactive).
Turning to `Cc1cc(C(=O)N/N=C2\CC(=O)CC(C)(C)C2)n[nH]1`, the IC50 is > 50 µM (inactive).
With `CCOc1ccc(C2C(C(=O)OC)=CN(CCOC)C=C2C(=O)OC)cc1`, the IC50 was 13.1 µM.
Consider `C=CCn1c(O)c(N=NC(=S)Nc2ccccc2F)c2cc(S(=O)(=O)N3CCOCC3)ccc21`, for which the IC50 is > 50 µM (inactive).
The result for `CN1CCCN(Cc2cccc3ccccc23)CC1` reads > 50 µM (inactive); that for `CC1CCCCN1C(=O)Cn1c(=O)oc2cc(S(=O)(=O)N3CCCC3)ccc21` (configuration not stated), > 50 µM (inactive); that for `COc1ccc(C(CNC(=O)c2cc(F)c(F)c(F)c2F)N2CCOCC2)cc1` (configuration not stated), > 50 µM (inactive).
With `CN(C)c1oc(-c2cccs2)nc1C#N`, the IC50 was > 50 µM (inactive).
With `COc1ccc2cc(C(=O)N/N=C/c3sc4ccccc4c3O)ccc2c1`, the IC50 was > 50 µM (inactive).
With `COCCCn1c(N)c(C(=O)Nc2ccccc2)c2nc3ccccc3nc21`, the IC50 is 40.8 µM.
As for `N#Cc1ccc(/C=C(\C(=O)C(=O)O)c2ccc3ccccc3n2)cc1`, the IC50 is 12 µM.
`COCCCn1c(=N)c(C(=O)NCc2ccc3c(c2)OCO3)cc2c(=O)n3ccccc3nc21`: the IC50 is 28.4 µM.
Take `CN1CCCN(C(=O)Cc2c(Cl)cccc2Cl)c2nc3ccccc3nc21`: the IC50 is 36.5 µM.
For the compound `Cc1ccc(-n2c(=O)c(C#N)cc3c(=O)n4ccccc4nc32)cc1`, the half-inhibitory concentration (IC50) is 1.99 µM.
The result for `CC(C)NC(=O)C1CC=CCC1C(=O)O` (configuration not stated) reads > 50 µM (inactive).
On to `NNC(=O)c1cc2nc(-c3cccs3)cc(C(F)(F)F)n2n1`, for which the IC50 is > 50 µM (inactive).
`COc1ccc(NC(=O)COC(C)=O)cc1Cl`: the IC50 was > 50 µM (inactive).
As for `C/C(=N\OCC(=O)OCC(=O)NC(=O)c1ccccc1)c1ccc2c(c1)OCO2`, the IC50 is > 50 µM (inactive).
For the compound `Cc1ccc(O)c(Nc2c3ccccc3nc3ccccc23)c1`, the IC50 was 48.8 µM.
In the case of `CCCSc1nnc(-c2c[nH]c3ccccc23)n1CC`, the IC50 was > 50 µM (inactive).
As to `Cc1cccc(C)c1N1CCN(S(=O)(=O)c2ccc(F)cc2)CC1`, the IC50 is > 50 µM (inactive).
`CCOC(=O)/C(C#N)=C\c1ccc(N2CCN(C)CC2)cc1`: the half-maximal inhibitory concentration (IC50) is 15 µM.
On to `COc1ccc(-n2c(N)c(C(=O)NCc3ccco3)c3nc4ccccc4nc32)c(OC)c1`, for which the IC50 was 21.9 µM.
With `NS(=O)(=O)c1ccc(CCNC(=O)C2CCN(S(=O)(=O)c3ccc(Br)s3)CC2)cc1`, the IC50 is > 50 µM (inactive).
The result for `CCc1cc(=O)oc2c(CNCc3ccc(OC)cc3OC)c(O)c(Cl)cc12` reads 14.4 µM.
Turning to `COCCN1C=C(C(=O)OC)C(c2cc(Br)c(OC)c(OC)c2)C(C(=O)OC)=C1`, the IC50 was 21.4 µM.
`CCc1ccccc1N(CC(=O)NCc1ccco1)C(=O)CCC(=O)Nc1nccs1`: the IC50 was > 50 µM (inactive).
As to `COC(=O)C1=CN(Cc2ccccc2)C=C(C(=O)OC)C1c1ccc(O)c(OC)c1`, the IC50 was > 50 µM (inactive).
As for `Cc1cccc(-c2nnc(NC(=O)c3ccc(N4C(=O)CCC4=O)cc3)s2)c1`, the IC50 was > 50 µM (inactive).
For `O=C(N/N=C/c1ccc(-c2ccccc2Cl)o1)c1ccccc1`, the IC50 was > 50 µM (inactive).
Take `COCCOC(=O)C1=C(C)NC(=O)NC1c1cccc2ccccc12` (configuration not stated): the IC50 was > 50 µM (inactive).
Turning to `CN(C)CCCn1c(N)c(C#N)c2nc(C#N)c(C#N)nc21`, the IC50 was 21.9 µM.
Regarding `O=C(NCc1ccccc1C(F)(F)F)C1CC(c2ccc(C(F)(F)F)cc2)=NO1` (configuration not stated), the IC50 was > 50 µM (inactive).
Consider `O=C(Nc1cccc(OC(=O)N2CCCCC2)c1)N1CCCCC1`, for which the IC50 was > 50 µM (inactive).
For the compound `CCN1/C(=C2\SC(=S)N(Cc3ccccc3)C2=O)Sc2ccccc21`, the IC50 is > 50 µM (inactive).
Consider `CCCOc1ccc(C2C(C(=O)OC)=CN(CCOC)C=C2C(=O)OC)cc1`, for which the IC50 is 12.3 µM.
The result for `CCCC(=O)NNc1c2ccccc2nc2ccccc12` reads > 50 µM (inactive); that for `COc1ccc(-n2c(N)c(C(=O)NCc3ccco3)c3nc4ccccc4nc32)cc1OC`, 45.6 µM.
For `Cc1ccc(OCC(=O)NNc2c3ccccc3nc3ccccc23)cc1`, the IC50 was > 50 µM (inactive).
Turning to `Cc1sc(NC(=O)c2ccccc2)c(C#N)c1-c1ccccc1`, the IC50 is > 50 µM (inactive).
Turning to `CCOC(=O)c1oc2c(CN3CCN(CCO)CC3)c(O)c(CC)cc2c(=O)c1-c1nc2ccccc2s1`, the half-maximal inhibitory concentration (IC50) was 18.4 µM.
As for `COc1cc2c(cc1OC)CN(Cc1cc(=O)oc3c(C)c(C)ccc13)CC2`, the IC50 was > 50 µM (inactive).
As to `CC(C)CCN(CCC(C)C)CC(O)Cn1c2ccccc2c(=O)c2ccccc21` (configuration not stated), the IC50 was 6.71 µM.
For `Cc1cccc(NS(=O)(=O)c2ccc(C(=O)N3CCCCCC3)cc2)c1C` the value was > 50 µM (inactive); for `S=c1[nH]c2ccc3ccccc3c2[nH]1`, > 50 µM (inactive); for `CSc1nsc(/C=C/Nc2ccc(C)cc2)c1C#N`, > 50 µM (inactive).
The result for `NS(=O)(=O)c1ccc(N=Nc2c[nH]c(=O)c(O)c2)cc1` reads > 50 µM (inactive); that for `CCOC(=O)N1CCN(c2cc(=O)n(-c3ccccc3C)c(=O)[nH]2)CC1`, > 50 µM (inactive); that for `COCCn1c(N)c(C(=O)OCc2ccccc2)c2nc3ccccc3nc21`, 46.2 µM.
Consider `Cc1cccc(/C=N/c2sc3c(c2C#N)CCN(Cc2ccccc2)C3)c1O`, for which the IC50 is > 50 µM (inactive).
The result for `CC1CC(=O)N(CC(=O)Nc2cccc(Cl)c2)c2ccccc2S1(=O)=O` (configuration not stated) reads > 50 µM (inactive); that for `COc1ccc(-c2cc(C(F)(F)F)n3nc(N)nc3n2)cc1`, 14.6 µM; that for `Cc1cnc(C(=O)Nc2ccc(S(=O)(=O)N(C(C)C)C(C)C)cc2)cn1`, > 50 µM (inactive).
Turning to `COCCN1C=C(C(=O)OC)C(c2ccc(Cl)cc2)C(C(=O)OC)=C1`, the IC50 is 9.78 µM.
For the compound `Cc1cccc2cc(C#N)c(NCCCn3ccnc3)nc12`, the IC50 was 19.2 µM.
For the compound `O=C1NC(=O)N(Cc2ccccc2)C(=O)/C1=C/N1CCCc2ccccc21`, the IC50 was > 50 µM (inactive).
For the compound `N#Cc1cc(NCC2CCCO2)c([N+](=O)[O-])cc1C#N` (configuration not stated), the IC50 was > 50 µM (inactive).
Take `COc1cc(OC)cc(-c2cc3nc(C)cc(N4CCN(C(=O)c5ccco5)CC4)n3n2)c1`: the IC50 is 4.91 µM.
Take `CCOc1ccc2nc(SCC(=O)NCc3ccc4c(c3)OCO4)[nH]c2c1`: the IC50 is > 50 µM (inactive).
As for `COCCNC(=O)c1cnn2c(C(F)F)cc(-c3ccc(C)cc3)nc12`, the IC50 is 37.8 µM.
Consider `O=C(CCCO)NNc1c2ccccc2nc2ccccc12`, for which the IC50 is > 50 µM (inactive).
Turning to `O=C(NNc1c2ccccc2nc2ccccc12)c1cc2ccccc2cc1O`, the IC50 is > 50 µM (inactive).
As for `CCN(CC)S(=O)(=O)c1ccc2oc(C(=O)NCCCN3CCOCC3)c(C)c2c1`, the IC50 is > 50 µM (inactive).
For `COc1cc(C(=O)NCCNc2nc3cc(C)ccc3cc2C#N)cc(OC)c1OC`, the IC50 was 34.6 µM.
As to `c1ccc(Nc2nc3ccccc3n3nnnc23)cc1`, the IC50 was 27.7 µM.
The result for `COc1ccc(NC(=O)c2ccc3snnc3c2)cc1` reads > 50 µM (inactive); that for `CN(C)/C=N/c1nc2nccc(-c3cccs3)n2n1`, 38.5 µM.
On to `Oc1cccc(/C=N/Nc2cc(N3CCCC3)nc(N3CCCC3)n2)c1`, for which the IC50 was > 50 µM (inactive).
For the compound `O=C(C1CCCCC1)N1CC(=O)N2CCc3ccccc3C2C1` (configuration not stated), the IC50 was > 50 µM (inactive).
Take `Cc1ccc2[nH]c(=O)c(C(c3nnnn3Cc3ccccc3)N3CCc4ccccc43)cc2c1` (configuration not stated): the IC50 is > 50 µM (inactive).
On to `CCN(/N=C/C=C/c1ccccc1)c1cc(=O)n(C)c(=O)[nH]1`, for which the IC50 was > 50 µM (inactive).
Turning to `O=C(NC1CCCCCC1)C(=S)NCCc1ccccc1`, the IC50 was > 50 µM (inactive).
Take `CNc1cc(F)nc(F)n1`: the IC50 is 18.4 µM.
